Experimental findings from article PMC4239642, “trans-Acting Arginine Residues in the AAA+ Chaperone ClpB Allosterically Regulate the Activity through Inter- and Intradomain Communication” (The Journal of Biological Chemistry, 2014) are described below.

Where two headings read alike, the source gives them in different places.

In assay [1] the target is T1, ClpB NBD1-M dimer with P221C/M394C disulfide crosslink (Thermus thermophilus, UniProt Q9RA63, P221C/M394C).
T1 construct: NBD1-M (residues 141-534) covalent dimer linked by intermolecular disulfide between P221C of one subunit and M394C of the other; expressed in E. coli BL21 (DE3) RIL; one cross-linked and one free site; associates to tetramers with ATP
T1 sequence (Q9RA63 141-534 M394C): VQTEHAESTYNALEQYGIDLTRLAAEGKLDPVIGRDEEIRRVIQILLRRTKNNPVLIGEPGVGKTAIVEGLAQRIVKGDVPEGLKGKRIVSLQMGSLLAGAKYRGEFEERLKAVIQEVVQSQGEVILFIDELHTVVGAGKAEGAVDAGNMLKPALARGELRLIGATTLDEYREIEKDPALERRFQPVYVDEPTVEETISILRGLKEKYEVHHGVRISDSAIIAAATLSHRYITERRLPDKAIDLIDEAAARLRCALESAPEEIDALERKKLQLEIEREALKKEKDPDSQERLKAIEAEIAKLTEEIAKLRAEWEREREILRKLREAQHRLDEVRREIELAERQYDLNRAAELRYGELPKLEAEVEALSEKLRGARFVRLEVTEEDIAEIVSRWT
T1 sequence (Q9RA63 141-534 P221C): as the sequence (Q9RA63 141-534 M394C) above, with P81C, C254M counted along it
Put plainly: fluorescence displacement titration against MANT-dADP. It is filed as binding. As to conditions: 2 µM protein, 50 mM Tris/HCl pH 7.5, 50 mM KCl, 5 mM MgCl2, 2 mM EDTA, 25 °C. An excerpt:
(§1) fluorescence displacement titration against MANT-dADP on ClpB NBD1-M dimer with P221C/M394C disulfide crosslink

Assay [2] addresses T2, ClpB NBD1-M (Thermus thermophilus, UniProt Q9RA63, R322A).
T2 construct: expressed in E. coli BL21 (DE3) RIL; monomer/dimer equilibrium for the arginine mutants
The description is as above. The class given is binding. To be noted: 2 µM protein, 50 mM Tris/HCl pH 7.5, 50 mM KCl, 5 mM MgCl2, 2 mM EDTA, 25 °C. An excerpt:
(§2) fluorescence displacement titration against MANT-dADP on ClpB NBD1-M

Assay [3] deals with T3, ClpB NBD1-M (Thermus thermophilus, UniProt Q9RA63, R322A/R323A).
T3 construct: expressed in E. coli BL21 (DE3) RIL; monomer/dimer equilibrium for the arginine mutants
T3 sequence (Q9RA63 141-534 R322A/R323A): as the sequence (Q9RA63 141-534 M394C) above, with R182A, R183A, C254M counted along it
The assay is described as above. As to conditions: 2 µM protein, 50 mM Tris/HCl pH 7.5, 50 mM KCl, 5 mM MgCl2, 2 mM EDTA, 25 °C. It is filed as binding.
From the text: as §2

Assay [4] has as its target T4, ClpB NBD1-M (Thermus thermophilus, UniProt Q9RA63, R323A).
T4 construct: expressed in E. coli BL21 (DE3) RIL; monomer/dimer equilibrium for the arginine mutants
Described as above. To be noted: 2 µM protein, 50 mM Tris/HCl pH 7.5, 50 mM KCl, 5 mM MgCl2, 2 mM EDTA, 25 °C. The class given is binding.
From the text: as §2

Assay [5] addresses T5, ClpB NBD1-M dimer with P221C/M394C disulfide crosslink (Thermus thermophilus, UniProt Q9RA63, P221C/M394C, form not given).
T5 construct: NBD1-M (residues 141-534) covalent dimer linked by intermolecular disulfide between P221C of one subunit and M394C of the other; expressed in E. coli BL21 (DE3) RIL; one cross-linked and one free site; associates to tetramers with ATP
The assay is described as above. It is filed as binding. To be noted: read-out: KD(ATP); 2 µM protein; 50 mM Tris/HCl pH 7.5, 50 mM KCl, 5 mM MgCl2, 2 mM EDTA, 25 °C; ATP-regenerating system (phosphoenolpyruvate, pyruvate kinase).
From the text: as §1

Assay [6] has as its target T1, ClpB NBD1-M dimer with P221C/M394C disulfide crosslink. Put plainly: coupled colorimetric ATPase assay, Hill equation fit. It is filed as biochemical. To be noted: 5 µM protein (monomer units); 50 mM Tris/HCl pH 7.5, 100 mM KCl, 10 mM MgCl2, 2 mM EDTA, 25 °C; kcat per monomer. The text has this: coupled colorimetric ATPase assay, Hill equation fit on ClpB NBD1-M dimer with P221C/M394C disulfide crosslink

Assay [7] has as its target T6, ClpB NBD1-M dimer with P221C/M394C disulfide crosslink (Thermus thermophilus, UniProt Q9RA63, M394C/P221C).
T6 construct: NBD1-M (residues 141-534) covalent dimer linked by intermolecular disulfide between P221C of one subunit and M394C of the other; expressed in E. coli BL21 (DE3) RIL; one cross-linked and one free site; associates to tetramers with ATP
In words: stopped-flow FRET kinetics (koff/kon). The class given is binding. As to conditions: read-out: KD "free". The text has this: stopped-flow FRET kinetics (koff/kon) on ClpB NBD1-M dimer with P221C/M394C disulfide crosslink

Assay [8] deals with T2, ClpB NBD1-M. In words: stopped-flow FRET kinetics (koff/kon). The class given is binding. The text has this: (§3) stopped-flow FRET kinetics (koff/kon) on ClpB NBD1-M
The target of assay [9] is T3, ClpB NBD1-M. In words: stopped-flow FRET kinetics (koff/kon). The class given is binding.
From the text: as §3

The target of assay [10] is T4, ClpB NBD1-M. In words: stopped-flow FRET kinetics (koff/kon). The class given is binding.
From the text: as §3

The mark [11] stands for this setting: read-out: KD(ATP), ATP-regenerating system (phosphoenolpyruvate, pyruvate kinase).

T2 sequence (Q9RA63 141-534 R322A): as the sequence (Q9RA63 141-534 M394C) above, with R182A, C254M counted along it
T4 sequence (Q9RA63 141-534 R323A): as the sequence (Q9RA63 141-534 M394C) above, with R183A, C254M counted along it
T5 sequence (Q9RA63 141-534 M394C): as the sequence (Q9RA63 141-534 M394C) above
T5 sequence (Q9RA63 141-534 P221C): as the sequence (Q9RA63 141-534 M394C) above, with P81C, C254M counted along it
T6 sequence (Q9RA63 141-534 M394C): as the sequence (Q9RA63 141-534 M394C) above
T6 sequence (Q9RA63 141-534 P221C): as the sequence (Q9RA63 141-534 M394C) above, with P81C, C254M counted along it

Broadly, the Kd is the free concentration of one partner at which half of the binding sites on the other are occupied at equilibrium, for simple one-to-one binding. As for `Nc1ncnc2c1ncn2[C@@H]1O[C@H](COP(=O)(O)OP(=O)(O)O)[C@@H](O)[C@H]1O` [ADP], the Kd in assay [1] (read-out: KD(ADP)) is 1.3 ± 0.1 µM; at ClpB NBD1-M [2] (read-out: KD(ADP)), 10.7 ± 0.6 µM; on ClpB NBD1-M [3] (read-out: KD(ADP)), 9.3 ± 0.7 µM; at ClpB NBD1-M [4] (read-out: KD(ADP)), 10.2 ± 0.6 µM.
One may read the Km as the concentration of substrate that gives half-maximal velocity. `Nc1ncnc2c1ncn2[C@@H]1O[C@H](COP(=O)(O)OP(=O)(O)OP(=O)(O)O)[C@@H](O)[C@H]1O` [ATP]: the Kd in assay [1] (setting [11]) was determined as 96 ± 11 µM; in [5], 438 ± 17 µM; at ClpB NBD1-M [2] (setting [11]), 1670 ± 160 µM; at ClpB NBD1-M [3] (setting [11]), 2050 ± 180 µM; at ClpB NBD1-M [4] (setting [11]), 1040 ± 120 µM. Moreover, in [6], the Km is 162 ± 4 µM.
With `CNc1ccccc1C(=O)O[C@H]1C[C@H](n2cnc3c(N)ncnc32)O[C@@H]1COP(=O)(O)OP(=O)(O)O` [MANT-dADP, 2′-deoxy-3′-O-(N′-methylanthraniloyl)adenosine-5′-O-diphosphate], the Kd in assay [7] worked out at 0.67 ± 0.04 µM; at ClpB NBD1-M [8], 8.3 ± 0.4 µM; at ClpB NBD1-M [9], 6.9 ± 0.2 µM; on ClpB NBD1-M [10], 6.7 ± 0.2 µM.
